What was measured:
SULT1A3 L67G = target: T1, SULT1A3 L67G (Homo sapiens, UniProt P0DMM9, L67G); assay: Binding-site mutation effect on Ki CMP8, L67G; format: biochemical; conditions: L67G versus wild type
T1 construct: N-His/GST/MBP triple-tag (N, cleaved yes); made in house; host or cells: E. coli BL21(DE3)
Experimental: (§1) Initial-Rate Studies. Initial-rate parameters for the labeled or mutant SULT1A3 constructs were determined using a previously described 1-HP assay (25). Briefly, reactions were initiated by addition of PAPS (0.50 mM, 17×Km) to a solution containing enzyme (20 nM, active sites), 1-HP (2.0 μM, ˜24×Km), and KPO4 (50 mM), pH 7.5, 25±2° C. Reactions were monitored via fluorescence change associated with the conversion of 1-HP to 1-HP-S (λex=325 nm, λem=370 nm). Keq for the 1-HP sulfonation reaction is […]. Given the reaction conditions outlined above, ≥99% of 1-HP is converted to 1-HP-S, and ˜0.4% of PAPS is converted to PAP at equilibrium. […] Reaction progress curves were analyzed to obtain initial-rate parameters as described previously (26,27).
(§2) Inhibition studies. Inhibition parameters were determined under conditions identical to those described above (see, Initial-Rate Studies) except that [1-HP] was increased to 5.0 μM (˜61×Km) and inhibitor concentration was varied between 0.20-20×Ki. Ki was obtained using a least-squares fit to the following partial inhibition equation (25,28): v=kcat·(Ki+(1/kcat inh)·[I])/(Ki+[I]), where kcat inh is enzyme turnover at saturating substrates and allosteric inhibitor.
(§3) Confirming the Structure. The structure was validated by testing its ability to predict the consequences of mutations on the initial-rate parameters of the enzyme. […]

SULT1A3 F222A, H226A = target: T2, SULT1A3 F222A, H226A (Homo sapiens, UniProt P0DMM9, F222A/H226A); assay: Binding-site mutation effect on Ki CMP8, F222A, H226A; format: biochemical; conditions: H226A versus wild type
T2 construct: N-His/GST/MBP triple-tag (N, cleaved yes); made in house; host or cells: E. coli BL21(DE3)
T2 sequence (P0DMM9 whole entry F222A/H226A): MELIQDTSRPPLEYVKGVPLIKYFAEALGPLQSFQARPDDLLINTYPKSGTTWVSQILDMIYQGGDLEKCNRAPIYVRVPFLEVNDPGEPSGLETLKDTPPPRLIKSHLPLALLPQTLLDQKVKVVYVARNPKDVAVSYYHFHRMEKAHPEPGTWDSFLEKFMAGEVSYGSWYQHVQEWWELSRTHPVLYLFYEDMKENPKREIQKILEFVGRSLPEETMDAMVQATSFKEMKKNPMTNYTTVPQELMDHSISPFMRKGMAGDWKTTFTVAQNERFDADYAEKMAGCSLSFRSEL
Experimental: as §1, §2, §3

[1] = target: SULT1A3 spin-labeled at Cys 198 (Homo sapiens, UniProt P0DMM9, E198C); assay: Initial-rate parameters, spin-labeled SULT1A3 mutant 198
SULT1A3 spin-labeled at Cys 198, sequence (P0DMM9 whole entry E198C): as the sequence (P0DMM9 whole entry F222A/H226A) above, with E198C, A222F, A226H counted along it
Experimental: (§5) Covalent Tagging of SULT1A3 Cys Constructs. Labeling of the SULT1A3 Cys constructs was performed as described previously (17,18,21). Briefly, 3-maleimido-PROXYL (spin label) or N-cyclohexylmaleimide (diamagnetic control) was added to an enzyme containing solution at 20-fold excess over reactive Cys. Unreacted Cys was monitored using DNTB (17,18,21); reactions were considered complete when >98% of the Cys was labeled. Reaction conditions: SULT1A3 (50 μM, monomer), 3-maleimido-PROXYL or N-cyclohexylmaleimide (1.0 mM), PAP (0.50 mM), KPO4 (50 mM), pH 7.5, 4±2° C. To prepare samples for NMR, reaction mixtures were dialyzed three times against 40 volumes of PAP (0.50 mM), KPO4 (50 mM), pD 7.4, D2O (>95%), 4±2° C.
(§6) Initial-Rate Studies. Initial-rate parameters for the labeled or mutant SULT1A3 constructs were determined using a previously described 1-HP assay (25). […] Reactions were monitored via fluorescence change associated with the conversion of 1-HP to 1-HP-S (λex=325 nm, λem=370 nm). Keq for the 1-HP sulfonation reaction is −250. Given the reaction conditions outlined above, ≥99% of 1-HP is converted to 1-HP-S, and ˜0.4% of PAPS is converted to PAP at equilibrium. […] Reaction progress curves were analyzed to obtain initial-rate parameters as described previously (26,27).

[2] = target: SULT1A3 spin-labeled at Cys 234 (Homo sapiens, UniProt P0DMM9, K234C); assay: Initial-rate parameters, spin-labeled SULT1A3 mutant 234
SULT1A3 spin-labeled at Cys 234, sequence (P0DMM9 whole entry K234C): as the sequence (P0DMM9 whole entry F222A/H226A) above, with A222F, A226H, K234C counted along it
Experimental: as §5, §6

SULT1E1 = target: T3, SULT1E1 (Homo sapiens, UniProt P49888); assay: SULT1E1 inhibition test; format: biochemical; conditions: at 50 uM
T3 sequence (P49888 1-294): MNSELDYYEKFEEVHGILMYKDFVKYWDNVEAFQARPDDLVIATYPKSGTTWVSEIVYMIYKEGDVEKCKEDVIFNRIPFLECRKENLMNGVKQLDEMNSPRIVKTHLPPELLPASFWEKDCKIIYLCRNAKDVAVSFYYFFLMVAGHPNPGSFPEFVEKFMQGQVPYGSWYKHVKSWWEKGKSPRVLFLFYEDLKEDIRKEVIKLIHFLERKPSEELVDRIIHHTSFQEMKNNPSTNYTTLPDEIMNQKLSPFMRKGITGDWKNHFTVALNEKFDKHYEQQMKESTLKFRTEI

SULT1A3 = SULT1A3 (Homo sapiens, UniProt P0DMM9); assay: Dopamine sulfonation by SULT1A3-expressing HME cells; format: cell-based; conditions: dopamine 100 μM, 24 hours, best-fit titration curve, read-out: EC50, inhibition of dopamine sulfonation
SULT1A3, sequence (P0DMM9 whole entry): as the sequence (P0DMM9 whole entry F222A/H226A) above, with A222F, A226H counted along it
Experimental: Cells were incubated with 100 μM dopamine and incubation media was sampled for dopamine and dopamine sulfate at the indicated time intervals. The dopamine and dopamine sulfate levels in the SULT1A3 (+) strain are shown as red and blue dots, respectively. Only dopamine (green dots) was detected using the SULT1A3 (−) strain.
HME cells were incubated with dopamine (100 μM) and Compound 12 (at the indicated concentrations) for 24 hours at which time the dopamine (red dots) and dopamine sulfate (blue dots) levels were determined. […] The chromatography was performed using a PFP-HPLC column. […] Further, the data in Table A reveal that Compound 12 is highly specific for the SULT1A3 isoform.
HME cells expressing SULT1A3 were incubated for 24 hours with dopamine (100 μM) and Compound 23 (at the indicated concentrations) at which time the dopamine (red dots) and dopamine sulfate (blue dots) concentrations were determined using the methods associated with FIG. 10B.

Dog (1D1) = Dog (1D1) (Canis lupus familiaris, UniProt A0A8I3RXJ1); assay: Inhibition of SULT1A3 homologues in different species: Dog; format: biochemical
Dog (1D1), sequence (A0A8I3RXJ1 entry or part of it): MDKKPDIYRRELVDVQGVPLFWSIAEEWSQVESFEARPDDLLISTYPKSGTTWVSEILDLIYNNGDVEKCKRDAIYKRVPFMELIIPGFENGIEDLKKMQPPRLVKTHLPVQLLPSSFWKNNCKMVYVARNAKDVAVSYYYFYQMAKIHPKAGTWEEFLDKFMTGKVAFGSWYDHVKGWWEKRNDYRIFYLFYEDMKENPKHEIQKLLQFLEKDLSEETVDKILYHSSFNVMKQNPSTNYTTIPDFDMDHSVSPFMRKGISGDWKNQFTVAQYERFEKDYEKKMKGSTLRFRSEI
Experimental: (§4) Compounds 12, 23 and 25 were also tested for Inhibition of SULT1A3 in different species. Inhibition of SULT1A3 Homologues in Different Species. SULT1A3 is only expressed in humans and higher primates. SULT1D1 is the isoform expressed in dogs and rodents that sulfonates neurotransmitters and is most similar to SULT1A3. Three synthesized allosteres (12, 23, and 25) were tested against both 1A3 and 1D1 from different species in order to explore testing in animal models. […] Mice have been engineered such that their SULT1A1/2 enzymes have been knocked out and replaced with the human versions of those isoforms.

Mouse (1D1) = Mouse (1D1) (Mus musculus, UniProt Q3UZZ6); assay: Inhibition of SULT1A3 homologues in different species: Mouse; format: biochemical
Mouse (1D1), sequence (Q3UZZ6 whole entry): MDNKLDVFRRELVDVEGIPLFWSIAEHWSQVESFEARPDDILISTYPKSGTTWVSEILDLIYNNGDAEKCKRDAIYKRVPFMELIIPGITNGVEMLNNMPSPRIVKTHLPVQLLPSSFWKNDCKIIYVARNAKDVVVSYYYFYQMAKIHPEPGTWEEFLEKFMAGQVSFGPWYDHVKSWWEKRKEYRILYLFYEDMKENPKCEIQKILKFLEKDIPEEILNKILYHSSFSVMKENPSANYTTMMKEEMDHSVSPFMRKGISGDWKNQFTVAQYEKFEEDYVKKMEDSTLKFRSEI
Experimental: Compounds 12, 23 and 25 were also tested for Inhibition of SULT1A3 in different species.
as §4, with “Inhibition” for “Compounds 12, 23 and 25 were also tested for Inhibition of SULT1A3 in different species. Inhibition”

T1 sequence (P0DMM9 whole entry L67G): as the sequence (P0DMM9 whole entry F222A/H226A) above, with L67G, A222F, A226H counted along it

| increase in Ki CMP8 (SULT1A3 L67G) [fold] | increase in Ki CMP8 (SULT1A3 F222A, H226A) [fold] | Ki [1] [nM] | Ki [2] [nM] | inhibition of SULT1E1 (SULT1E1) | EC50 (SULT1A3) [nM] | Dog (1D1) % inh (Dog (1D1)) | Ki (Dog (1D1); standard error in neighbouring cell) [nM] | Mouse (1D1) % inh (Mouse (1D1)) | Ki (Mouse (1D1); parentheses one standard error) [nM] | SMILES |
| --- | --- | --- | --- | --- | --- | --- | --- | --- | --- | --- |
| 5.3 | 60 | 46 | 31 |  |  |  |  |  |  | CC(C)Cc1ccc2cc(CO)ccc2n1 [Compound 8, (2-Isobutylquinolin-6-yl)methanol] |
|  |  |  |  | no inhibition was detected | 250 ± 87 | 83 (6) % | 77 | 82 (2) % | 79 | CC(C)Cc1ccc2cc(CCC(N)=O)ccc2n1 [Compound 12] |
